Consider 14 substances from patent US10517889B2, “Modulators of SMAD7 expression” (Ionis Pharmaceuticals, Inc., priority 2017, dated 2019).

pIC50: −log10 of the molar value. Strand notation (5' to 3'): a small letter for the sugar, then the base; units joined by * are phosphorothioate-linked, units joined directly phosphodiester-linked; [ ] holds rarer units or linkages, { } end groups; capitals alone tell only the bases. e = 2'-O-(2-methoxyethyl) (MOE); [5mC] = 5-methylcytosine; d = 2'-deoxy (DNA) A value given as a limit tells only on which side of the number the result lay.

Data set [1] deals with human SMAD7 mRNA. The data set is described as follows: Antisense inhibition of human SMAD7 mRNA expression in Hep3B cells by 5-10-5 MOE gapmers, single concentration, electroporation, RT-PCR (Example 1, Study 1 and 2). In kind it is cell-based. In short, it runs like this: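 Hep3B cells (20,000/well) electroporated with 5-10-5 MOE gapmer at 5,000 nM or 15,000 nM for approximately 24 h. SMAD7 mRNA quantified by real-time PCR with primer probe set RTS5062 and normalized to RIBOGREEN total RNA. Values are percent inhibition relative to untreated controls.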

The test system of data set [2] is human SMAD7 mRNA. The data set is described as follows: Dose-dependent inhibition of human SMAD7 mRNA expression in Hep3B cells (Example 3, Study 1 and 2). The class given is cell-based. As to conditions: electroporation; for % inhibition of SMAD7 mRNA expression: approximately 16 hours; for pIC50: Study 1 (312.5-20000 nM). In short, it runs like this:
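Hep3B cells, 20,000 per well, electroporated with antisense oligonucleotide at 0.31, 1.25, 5.00 or 20.00 μM (first series) or 0.74, 2.22, 6.67 or 20.00 μM (second series). After ~16 h, SMAD7 mRNA measured by RT-qPCR (RTS5062), normalised to RIBOGREEN total RNA. Percent inhibition vs untreated cells; IC50 derived.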

Where [3] appears, read: Study 2, electroporation with 15,000 nM antisense oligonucleotide, 5-10-5 MOE gapmers targeting SEQ ID NO: 1 and 2.
The mark [4] stands for this setting: 312.5 nM, Study 1, relative to untreated control cells.
Where [5] appears, read: electroporation, 15,000 nM antisense oligonucleotide (Study 2), 5-10-5 MOE gapmers targeting SEQ ID NO: 1 and 2.
The mark [6] stands for this setting: electroporation, 15,000 nM, approximately 24 hours, relative to untreated control cells, gapmers targeting SEQ ID NO: 1 and 2.

On to “771444 (eA*eG*e[5mC]*e[5mC]*eT*d[5mC]*dT*dT*dG*dA*d[5mC]*dT*dT*d[5mC]*d[5mC]*eG*eA*eG*eG*eA; antisense) [compound 771444]”, for which the “% Inhibition” value in the data set on human SMAD7 mRNA [1] (setting [3]) stood at 67%. Moreover, the “% inhibition of SMAD7 mRNA expression” value with human SMAD7 mRNA [1] (electroporation, 5,000 nM, approximately 24 hours, relative to untreated control cells, gapmers targeting SEQ ID NO: 1 and 2) amounted to 65%; in the data set with human SMAD7 mRNA [2] (setting [4]) it was 0%; in the data set with human SMAD7 mRNA [2] (1250.0 nM, Study 1), 0%; with human SMAD7 mRNA [2] (5000.0 nM, Study 1), 9%; in the data set on human SMAD7 mRNA [2] (20000.0 nM, Study 1), 29%. Besides, the pIC50 with human SMAD7 mRNA [2] was under 4.70.

Take “771461 (antisense eG*eT*eA*eG*eA*dG*d[5mC]*d[5mC]*dT*d[5mC]*d[5mC]*d[5mC]*d[5mC]*dA*d[5mC]*eT*e[5mC]*eT*e[5mC]*eG) [compound 771461]”: in the data set with human SMAD7 mRNA [1] (setting [3]), the “% Inhibition” value amounted to 37%. Further, the “% inhibition of SMAD7 mRNA expression” value in the data set on human SMAD7 mRNA [2] (setting [4]) turned out to be 0%; in the data set on human SMAD7 mRNA [2] (1250.0 nM, Study 1) it was 2%; in the data set with human SMAD7 mRNA [2] (5000.0 nM, Study 1), 11%; in the data set with human SMAD7 mRNA [2] (20000.0 nM, Study 1), 39%. Also, the negative-log IC50 (pIC50) in the data set with human SMAD7 mRNA [2] is under 4.70.

Consider “771464 (antisense eG*eA*eG*eA*eG*dG*dG*d[5mC]*dT*d[5mC]*d[5mC]*dT*dG*dG*dA*e[5mC]*eA*e[5mC]*eA*eG) [compound 771464]”, for which, in the data set on human SMAD7 mRNA [1] (setting [3]), the “% Inhibition” value amounted to 55%. In addition, the “% inhibition of SMAD7 mRNA expression” value is 11% in the data set with human SMAD7 mRNA [2] (setting [4]); 8% with human SMAD7 mRNA [2] (1250.0 nM, Study 1); 21% in the data set on human SMAD7 mRNA [2] (5000.0 nM, Study 1); 50% in the data set with human SMAD7 mRNA [2] (20000.0 nM, Study 1). Besides, the pIC50 in the data set with human SMAD7 mRNA [2] was under 4.70.

Consider “771474 (antisense eG*e[5mC]*eA*eG*e[5mC]*d[5mC]*dG*dA*dT*dT*dT*dT*dG*d[5mC]*dT*e[5mC]*e[5mC]*eG*e[5mC]*eA) [compound 771474]”, for which the “% inhibition of SMAD7 mRNA expression” value with human SMAD7 mRNA [1] (setting [5]) amounted to 56%; in the data set with human SMAD7 mRNA [2] (setting [4]), 3%; in the data set with human SMAD7 mRNA [2] (1250.0 nM, Study 1), 4%; in the data set on human SMAD7 mRNA [2] (5000.0 nM, Study 1), 21%; in the data set with human SMAD7 mRNA [2] (20000.0 nM, Study 1), 52%. The pIC50 in the data set with human SMAD7 mRNA [2] was 4.77.

For “771479 (antisense eG*eG*eG*eA*eA*d[5mC]*dA*d[5mC]*d[5mC]*dT*dT*dG*dT*dG*dT*eA*e[5mC]*e[5mC]*eA*eA) [compound 771479]”, the “% inhibition of SMAD7 mRNA expression” value was determined as 58% in the data set with human SMAD7 mRNA [1] (setting [3]); 0% in the data set with human SMAD7 mRNA [2] (setting [4]); 8% in the data set on human SMAD7 mRNA [2] (1250.0 nM, Study 1); 49% in the data set on human SMAD7 mRNA [2] (5000.0 nM, Study 1); 74% with human SMAD7 mRNA [2] (20000.0 nM, Study 1). This substance also had a negative logarithm of the IC50 (pIC50) in the data set on human SMAD7 mRNA [2] of 5.15.

Consider “771487 (antisense e[5mC]*eT*eG*e[5mC]*eA*d[5mC]*dG*dG*dT*dA*dA*dA*dG*d[5mC]*d[5mC]*e[5mC]*eG*eT*e[5mC]*e[5mC]) [compound 771487]”, for which the “% inhibition of SMAD7 mRNA expression” value in the data set on human SMAD7 mRNA [1] (setting [3]) was found to be 45%; in the data set with human SMAD7 mRNA [2] (setting [4]), 4%; in the data set on human SMAD7 mRNA [2] (1250.0 nM, Study 1) it was 0%; in the data set with human SMAD7 mRNA [2] (5000.0 nM, Study 1) it was 7%; in the data set on human SMAD7 mRNA [2] (20000.0 nM, Study 1), 26%. The negative logarithm of the IC50 (pIC50) with human SMAD7 mRNA [2] was under 4.70.

In the case of “771506 (antisense eG*e[5mC]*eT*e[5mC]*eA*dG*d[5mC]*dT*d[5mC]*dA*d[5mC]*dG*d[5mC]*dT*d[5mC]*eT*eG*eT*e[5mC]*e[5mC]) [compound 771506]”, the “% inhibition of SMAD7 mRNA expression” value worked out at 53% in the data set with human SMAD7 mRNA [1] (setting [5]); 54% in the data set with human SMAD7 mRNA [2] (setting [4]); 1% with human SMAD7 mRNA [2] (1250.0 nM, Study 1); 5% with human SMAD7 mRNA [2] (5000.0 nM, Study 1); 44% in the data set on human SMAD7 mRNA [2] (20000.0 nM, Study 1). Further, the pIC50 with human SMAD7 mRNA [2] was under 4.70.

As to “771509 (antisense eG*eG*e[5mC]*e[5mC]*eT*dG*d[5mC]*dT*d[5mC]*dA*dG*d[5mC]*dT*d[5mC]*dA*e[5mC]*eG*e[5mC]*eT*e[5mC]) [compound 771509]”, the “% inhibition of SMAD7 mRNA expression” value is 65% in the data set on human SMAD7 mRNA [1] (setting [6]); 0% in the data set with human SMAD7 mRNA [2] (setting [4]); 0% in the data set on human SMAD7 mRNA [2] (1250.0 nM, Study 1); 13% in the data set with human SMAD7 mRNA [2] (5000.0 nM, Study 1); 47% in the data set on human SMAD7 mRNA [2] (20000.0 nM, Study 1). In addition, the pIC50 in the data set on human SMAD7 mRNA [2] is under 4.70.

For the substance “771552 (antisense e[5mC]*eT*eT*eG*eG*dA*dT*dT*dT*d[5mC]*dT*dG*d[5mC]*dT*dT*e[5mC]*e[5mC]*e[5mC]*e[5mC]*eT) [compound 771552]”, the “% Inhibition of SMAD7 mRNA” value in the data set on human SMAD7 mRNA [1] (electroporation with 15,000 nM antisense oligonucleotide (Study 2), 5-10-5 MOE gapmers targeting SEQ ID NO: 1 and 2) is 53%. Further, the “% inhibition of SMAD7 mRNA expression” value is reported as 28% in the data set with human SMAD7 mRNA [1] (setting [5]); 2% with human SMAD7 mRNA [2] (setting [4]); 25% with human SMAD7 mRNA [2] (1250.0 nM, Study 1); 20% in the data set with human SMAD7 mRNA [2] (5000.0 nM, Study 1); 45% with human SMAD7 mRNA [2] (20000.0 nM, Study 1). This substance had a pIC50 in the data set on human SMAD7 mRNA [2] of under 4.70.

With “771556 (antisense e[5mC]*e[5mC]*e[5mC]*eT*eT*d[5mC]*dA*dT*dA*d[5mC]*dA*d[5mC]*dT*dG*dT*eG*eT*eT*eT*eG) [compound 771556]”, the “% inhibition of SMAD7 mRNA expression” value in the data set on human SMAD7 mRNA [1] (setting [3]) was found to be 30%; in the data set with human SMAD7 mRNA [2] (setting [4]), 1%; with human SMAD7 mRNA [2] (1250.0 nM, Study 1) it was 0%; with human SMAD7 mRNA [2] (5000.0 nM, Study 1), 9%; in the data set on human SMAD7 mRNA [2] (20000.0 nM, Study 1), 33%. The pIC50 with human SMAD7 mRNA [2] was under 4.70.

“771570 (antisense eT*eG*eG*eG*eA*d[5mC]*dT*dG*d[5mC]*dA*dA*dA*d[5mC]*d[5mC]*dT*e[5mC]*eT*e[5mC]*eT*eG) [compound 771570]”: the “% inhibition of SMAD7 mRNA expression” value in the data set with human SMAD7 mRNA [1] (setting [5]) came out at 60%; with human SMAD7 mRNA [2] (setting [4]), 0%; in the data set with human SMAD7 mRNA [2] (1250.0 nM, Study 1) it was 0%; in the data set with human SMAD7 mRNA [2] (5000.0 nM, Study 1), 43%; with human SMAD7 mRNA [2] (20000.0 nM, Study 1), 48%. Further, in the data set on human SMAD7 mRNA [2], the pIC50 is under 4.70.

Regarding “771572 (antisense e[5mC]*eT*eT*eG*eG*dG*dA*d[5mC]*dT*dG*d[5mC]*dA*dA*dA*d[5mC]*e[5mC]*eT*e[5mC]*eT*e[5mC]) [compound 771572]”, the “% inhibition of SMAD7 mRNA expression” value in the data set with human SMAD7 mRNA [1] (setting [3]) is 37%; with human SMAD7 mRNA [2] (setting [4]), 0%; in the data set with human SMAD7 mRNA [2] (1250.0 nM, Study 1) it was 10%; with human SMAD7 mRNA [2] (5000.0 nM, Study 1), 38%; with human SMAD7 mRNA [2] (20000.0 nM, Study 1), 13%. Further, the negative logarithm of the IC50 (pIC50) in the data set with human SMAD7 mRNA [2] is under 4.70.

Consider “771573 (antisense eG*e[5mC]*eT*eT*eG*dG*dG*dA*d[5mC]*dT*dG*d[5mC]*dA*dA*dA*e[5mC]*e[5mC]*eT*e[5mC]*eT) [compound 771573]”, for which the “% inhibition of SMAD7 mRNA expression” value was determined as 65% with human SMAD7 mRNA [1] (setting [6]); 0% in the data set on human SMAD7 mRNA [2] (setting [4]); 5% with human SMAD7 mRNA [2] (1250.0 nM, Study 1); 24% in the data set with human SMAD7 mRNA [2] (5000.0 nM, Study 1); 56% in the data set on human SMAD7 mRNA [2] (20000.0 nM, Study 1). For the same substance, the pIC50 in the data set with human SMAD7 mRNA [2] is 4.74.

“771574 (antisense e[5mC]*eG*e[5mC]*eT*eT*dG*dG*dG*dA*d[5mC]*dT*dG*d[5mC]*dA*dA*eA*e[5mC]*e[5mC]*eT*e[5mC]) [compound 771574]”: the “% inhibition of SMAD7 mRNA expression” value turned out to be 66% in the data set with human SMAD7 mRNA [1] (setting [3]); 0% with human SMAD7 mRNA [2] (setting [4]); 5% in the data set with human SMAD7 mRNA [2] (1250.0 nM, Study 1); 36% with human SMAD7 mRNA [2] (5000.0 nM, Study 1); 58% in the data set on human SMAD7 mRNA [2] (20000.0 nM, Study 1). This substance also gave a negative logarithm of the IC50 (pIC50) with human SMAD7 mRNA [2] of 4.89.

For orientation: % Inhibition means the drop in the measured response relative to a control, in per cent. Read a low % Inhibition as a weak effect. As a reminder, the pIC50 is −log10 of the IC50, conventionally taken in molar units. A lower pIC50 goes with a large IC50.
